# Key:
# [1] = system: p53 transcriptional activity; test: p53-responsive luciferase reporter bioluminescence imaging; assay type: cell-based, human; conditions: for 1/slope of dose-dependent p53-responsive reporter bioluminescence: 24 hr
# Method: Functional cell-based screening for small molecules that can increase p53-transcriptional activity was performed using noninvasive bioluminescence imaging in human colorectal cancer cells (SW480, DLD-1, HCT116 and p53-null HCT116) that stably express a p53-regulated reporter, as previously described (Wang W, et al., Proc Natl Acad Sci USA 2006; 103: 11003-8). Cells were seeded in 96-well plates at a density of 5×10^4 cells/well. […] Cells treated with 5 μM of Prodigiosin were used as a positive control, and DMSO treatment was used as a negative control in each screened plate. The bioluminescence in each treatment was normalized to DMSO treatment.
# SW480, DLD-1, HCT116 and p53-null HCT116 cells which stably express a p53-regulated luciferase reporter were generated as previously described (Wang et al., 2006, Proc. Natl. Acad. Sci. USA 103:11003-11008; Wang et al., 2003, Cancer Biol. Ther. 2:196-202). MRCS, Wi38, Hop92 and RXF393 were obtained from ATCC and cultured as recommended. Cells were regularly authenticated by bioluminescence, growth and morphological observation.
# [2] = system: cancer cell lines bearing different p53 mutations; test: CellTiter-Glo luminescent cell viability assay, cell line panel; assay type: cell-based, human; conditions: most cancer cells compared with normal cells, 72 hr
# Method: Cells at a concentration of 5000 cells/well in 96-well plates were treated with NSC59984 or other drugs. At seventy-two hours after treatment, cells were mixed with an equal volume of CellTiter-Glo reagents (Promega, Madison, Wis.), following the manufacturer's protocol, and bioluminescence imaging was measured using the IVIS imager.
# [3] = system: RXF393 cells; test: Flow cytometry sub-G1 DNA content; assay type: cell-based, human; conditions: 50 μM, 8 hours
# Method: (§1) Cells were treated with NSC59984 or other drugs. Seventy-two hours after treatment, the cells were fixed with ethanol and stained with Propidium Iodide (PI). The samples were then subjected to analysis by an Epics Elite flow cytometer to measure the DNA content of the stained cells.
# [4] = system: cancer cells; test: Flow cytometry sub-G1 DNA content; assay type: cell-based, human; conditions: 72 hr
# Method: as §1
# [5] = system: normal cells; test: Flow cytometry sub-G1 DNA content; assay type: cell-based, human; conditions: 25 μM, 72 hr
# Method: as §1
# [6] = system: DLD-1 cells; test: Flow cytometry sub-G1 DNA content; assay type: cell-based, human
# Method: as §1
# Cells were infected with retrovirus containing the pSIREN-REtrpcQ retroviral vector recombinant with TAp73 RNAi. Cells were cultured with blasticidin for several weeks, and blasticidin-resistant clones were selected. Knock-down of p73 was detected by measuring p73 protein levels by Western blot with anti-p73 antibody (Bethyl laboratories Inc. USA).
# [7] = system: Hop92 and SW480 cells; test: Flow cytometry sub-G1 DNA content; assay type: cell-based, human; conditions: 25 μM and 50 μM, 8 hours
# Method: Cells were treated with NSC59984 or other drugs. […] The samples were then subjected to analysis by an Epics Elite flow cytometer to measure the DNA content of the stained cells.
# [8] = system: PARP cleavage; test: Cleaved PARP Western blot; assay type: cell-based, human; conditions: for PARP cleavage: 30 hours
# Method: (§2) Proteins were extracted from cells and electrophoresed through 4-12% SDS-PAGE then transferred to PVDF membranes. The primary antibodies indicated in the figures were incubated with the transferred PVDF in blocking buffer at 4° C. overnight. Antibody binding was detected on PVDF with appropriate IRDye-secondary antibodies (LI-COR Biosciences, USA) by the ODYSSEY infrared imaging system.
# [9] = system: γH2AX; test: Genotoxicity measured by γH2AX; assay type: cell-based, human
# Method: as §2
# [10] = system: mutant p53; assay type: cell-based, human
# Method: The primary antibodies indicated in the figures were incubated with the transferred PVDF in blocking buffer at 4° C. overnight. Antibody binding was detected on PVDF with appropriate IRDye-secondary antibodies (LI-COR Biosciences, USA) by the ODYSSEY infrared imaging system.
# [11] = system: mutant p53 mRNA; test: Mutant p53 mRNA qRT-PCR; assay type: cell-based, human; conditions: SW480 cells, 3 hr or 16 hr, compared to DMSO control
# Text: Total RNA was isolated from cells using RNeasy mini kit (Qiagen, USA) by the recommended protocol. Reverse transcription used SuperScript II first-strand synthesis system (Invitrogen, USA) with random primers. qRT-PCR reactions used SYBR green master mix with the Real-Time PCR Detection systems (Bio-Rad, USA). Primers for qRT-PCR are (forward) 5′-[…]-3′ (SEQ ID NO: 1) and (reverse) 5′-[…]-3′ (SEQ ID NO: 2) for p53, (forward) 5′-TGTCCGTCAGAACCCATG-3′ (SEQ ID NO: 3) and (reverse) 5′-[…]-3′ (SEQ ID NO: 4) for p21, (forward) 5′-[…]-3′ (SEQ ID NO: 5) and (reverse) 5′-[…]-3′ (SEQ ID NO: 6) for Puma, (forward) 5′-[…]-3′ (SEQ ID NO: 7) and (reverse) 5′-[…]-3′ (SEQ ID NO: 8) for Noxa, (forward) 5′-CTGGGCTACACTGAGCACC-3′ (SEQ ID NO: 9) and (reverse) 5′-[…]-3′ (SEQ ID NO: 10) for Gapdh. Target gene expression levels were normalized with Gapdh.
# [12] = molecular target: T1, p73 (Homo sapiens, UniProt O15350); test: p73 protein level Western blot; assay type: cell-based; conditions: mutant p53-expressing tumor cells, 8 hours
# T1 construct: endogenous in cells
# T1 sequence (O15350 whole entry): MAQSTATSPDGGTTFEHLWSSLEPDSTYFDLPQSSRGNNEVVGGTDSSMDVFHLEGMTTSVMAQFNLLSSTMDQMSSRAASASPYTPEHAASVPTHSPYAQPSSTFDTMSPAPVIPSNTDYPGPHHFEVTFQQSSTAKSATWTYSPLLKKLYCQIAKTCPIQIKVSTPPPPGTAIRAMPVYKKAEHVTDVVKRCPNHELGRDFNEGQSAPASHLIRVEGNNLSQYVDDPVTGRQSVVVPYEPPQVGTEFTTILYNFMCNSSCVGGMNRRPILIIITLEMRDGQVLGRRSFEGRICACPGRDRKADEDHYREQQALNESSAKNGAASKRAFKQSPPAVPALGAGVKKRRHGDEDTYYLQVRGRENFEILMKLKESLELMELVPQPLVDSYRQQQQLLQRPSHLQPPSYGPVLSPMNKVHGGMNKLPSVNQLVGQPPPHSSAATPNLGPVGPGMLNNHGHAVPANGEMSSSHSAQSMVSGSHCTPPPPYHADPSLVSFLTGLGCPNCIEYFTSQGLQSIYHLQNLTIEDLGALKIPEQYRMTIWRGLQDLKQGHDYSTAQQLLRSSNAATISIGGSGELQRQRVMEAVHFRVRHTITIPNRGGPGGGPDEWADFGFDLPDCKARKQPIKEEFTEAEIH
# Method: as §2
# [13] = Body weight and toxicity in xenograft mice; assay type: in vivo; conditions: 45 mg/kg i.p. every 5 days
# Method: CRL nude mice (female, 4-6 weeks old) were inoculated s.c. in the opposite flanks with 5 million DLD-1 or p73 knock-down DLD-1 cells in an equal volume of martrigel. Treatment with NSC59984 (i.p. injection) was initiated when the tumor masses reached a size of 3-5 mm. NSC59984 (45 mg/kg) was injected by i.p. route every 5 days. Fifteen days after treatment, the mice were euthanized using an institutional animal care and use committee-approved animal protocol.
structure (smiles),measurement,setting,value
"CN1CCN(C(=O)/C=C/c2ccc([N+](=O)[O-])o2)CC1 [NSC59984, (E)-1-(4-methylpiperazin-1-yl)-3-(5-nitrofuran-2-yl)prop-2-en-1-one]",1/slope of dose-dependent p53-responsive reporter bioluminescence,[1]; DLD-1 (mutant p53 S241F),29.75
same,1/slope of dose-dependent p53-responsive reporter bioluminescence,"[1]; SW480 (mutant p53 R273H, P309S)",31.37
same,p53-responsive bioluminescence,"[1]; SW480 cells, 10 μM",increases
same,1/slope of dose-dependent p53-responsive reporter bioluminescence,[1]; p53-null HCT116 cells,102.9
same,p53-responsive bioluminescence,"[1]; p53-null HCT116 cells, increasing doses",slightly induced
same,p53-responsive bioluminescence,"[1]; p73-overexpressing (Ad-p73) SW480 cells vs wild-type p53-overexpressing SW480 cells, 8 hr",significantly increased
same,NSC59984-induced p53-responsive bioluminescence,"[1]; p73 knock-down SW480 cells, 8 hr",abrogated
same,1/slope of dose-dependent p53-responsive reporter bioluminescence,[1]; wild-type p53-expressing HCT116 cells,328.4
same,p53-responsive bioluminescence,"[1]; wild-type p53-expressing HCT116 cells, increasing doses",no significant increase
same,EC50 cell viability,[2],significantly lower
same,Sub-G1 DNA content,[3],8.7%
same,sub-G1 DNA content,[4]; 25 μM,26-56%
same,cells with sub-G1 content,[4]; 50 μM,55-93%
same,sub-G1 DNA content increase,[5],not in normal cells
same,Sub-G1 DNA content,"[6]; 50 μM, 8 hours, DLD-1",8.2%
same,percentage of cells with sub-G1 content,"[6]; DLD-1 cells, 72 hr",increased
same,effect on percentage of cells with sub-G1 content,"[6]; p73 knock-down DLD-1 cells, 72 hr",significantly reduced
same,subG1 DNA-content,[7],nor subG1 DNA-content was increased
same,PARP cleavage,"[8]; cancer cells, dose-dependent",increased
same,PARP cleavage,"[8]; normal cells, same doses",not observed
same,NSC59984-induced PARP cleavage,"[8]; p73 knock-down DLD-1 cells, 24 hours",partially abrogated
same,γH2AX,"[9]; HCT116 cells, 8 hours, 12 μM",increase of γH2AX
same,γH2AX,"[9]; SW480 and DLD-1 cancer cells, within 24 hr, up to 50 μM",No γH2AX was found
same,total mutant p53 protein degraded,"[10]; DLD-1 and RXF393 cells, 50 μM",25-50%
same,mutant p53 protein level,"[10]; SW480, DLD-1, Hop92 and RXF393 cells, 8 hr, dose-dependent",down-regulated
same,p53 mRNA,[11],not decreased
same,p73 protein levels,[12],not found to be increased
same,mouse body weights,[13],did not cause an obvious change
same,toxic effect in mice,[13]; tested dose,no overt toxic effect
